pIC50: −log10 of the molar value.
Legend:
human SGLT1 = biological target: T1, human SGLT1 (Homo sapiens, UniProt P13866); assay: Inhibition test of sodium-dependent sugar uptake in CHO-k1 cells stably expressing human SGLT1; format: cell-based; conditions: for pIC50: CHO-k1 cells expressing human SGLT1, [14C]methyl α-D-glucopyranoside uptake, 37° C., 30 minutes; for SGLT1 % inhibition at 100 nM: sugar uptake inhibition rate at 100 nM test compound vs control group
T1 construct: expressed in transfected cells; host or cells: CHO-k1
T1 sequence (P13866 1-664): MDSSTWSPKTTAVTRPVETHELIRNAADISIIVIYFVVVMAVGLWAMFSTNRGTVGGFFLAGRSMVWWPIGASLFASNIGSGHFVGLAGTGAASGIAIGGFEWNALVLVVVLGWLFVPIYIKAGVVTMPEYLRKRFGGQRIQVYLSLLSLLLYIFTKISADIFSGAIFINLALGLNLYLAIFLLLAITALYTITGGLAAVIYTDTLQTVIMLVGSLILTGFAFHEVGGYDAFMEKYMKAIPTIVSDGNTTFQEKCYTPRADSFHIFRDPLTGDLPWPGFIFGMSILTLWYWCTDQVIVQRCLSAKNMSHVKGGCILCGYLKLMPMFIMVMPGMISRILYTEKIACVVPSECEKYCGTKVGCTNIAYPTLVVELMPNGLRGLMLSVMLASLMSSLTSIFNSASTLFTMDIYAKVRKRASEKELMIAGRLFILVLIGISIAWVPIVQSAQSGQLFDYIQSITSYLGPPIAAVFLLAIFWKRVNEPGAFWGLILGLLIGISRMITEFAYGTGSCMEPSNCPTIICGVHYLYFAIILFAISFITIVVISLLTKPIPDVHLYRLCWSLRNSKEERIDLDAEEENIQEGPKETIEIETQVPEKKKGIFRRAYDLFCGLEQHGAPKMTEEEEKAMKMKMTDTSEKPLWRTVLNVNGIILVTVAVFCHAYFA
Method: (§1) An SGLT1 sequence (NM_000343) was reverse-transcripted from human small intestinal mRNA, then amplified, and then introduced into pCMV-tag5A from Stratagene Corporation. An SGLT2 sequence (NM_003041) was prepared from human nephric mRNA as with the above method, and then introduced into pcDNA3.1+hygro from Invitrogen Corporation. Each cloned sequence was confirmed to be identical with the reported sequence.
(§2) The human SGLT1 and human SGLT2 expression vectors were transfected into CHO-k1 cells by using Lipofectamine 2000 from Invitrogen Corporation. The SGLT expression cells were incubated in the presence of Geneticin (SGLT1) or Hygromycin B (SGLT2) at a 500 μg/mL concentration to select resistant strains, and specific activity of sugar uptake was obtained as an indicator by the following system.
(§3) Cells stably expressing human SGLT1 and human SGLT2 were used for the inhibition test of sodium-dependent glucose uptake.
(§4) The cells were incubated in a pretreatment buffer A (200 μL for SGLT1, and 2 mL for SGLT2) for 20 minutes. The pretreatment buffer was removed and an uptake buffer B (75 μL for SGLT1, and 200 μL for SGLT2) containing a test compound was added to conduct an uptake reaction at 37° C. for 30 minutes (SGLT1) or an hour (SGLT2). After the reaction, the cells were washed with a washing buffer C twice (200 μL for SGLT1, and 2 mL for SGLT2), and then dissolved in a 0.2 M solution of NaOH (75 μL for SGLT1, and 400 μL for SGLT2). After a liquid scintilater was added thereto and mixed sufficiently, radioactivity was measured with microBETA (SGLT1) or a liquid scintillation counter from Beckman Coulter, Inc (SGLT2). As a control group, an uptake buffer containing no test compound was prepared. In addition, as the basic uptake buffer, an uptake buffer B containing choline chloride instead of NaCl was prepared. • A pretreatment buffer A: 140 mM choline chloride, 2 mM KCl, 1 mM CaCl2, 1 mM MgCl2, 10 mM HEPES/5 mM Tris, pH 7.4. • An uptake buffer B: 1 mM of methyl α-D-glucopyranoside containing [^14C]methyl α-D-glucopyranoside, 140 mM NaCl, 2 mM KCl, 1 mM CaCl2, 1 mM MgCl2, 10 mM HEPES/5 mM Tris, pH 7.4. • A washing buffer C: 10 mM methyl α-D-glucopyranoside, 140 mM choline chloride, 2 mM KCl, 1 mM CaCl2, 1 mM MgCl2, 10 mM HEPES/5 mM Tris, pH 7.4.
(§5) In order to obtain IC50 values, test compounds having adequate 6 concentrations were used and the test compound concentrations (IC50 values) at which sugar uptake is inhibited by 50% in comparison with the amount of sugar uptake (100%) of the control group were calculated.
(§6) In addition, the sugar uptake inhibition rates at 100 nM concentration of the test compound in comparison with the control group are shown in Table 7.

human SGLT2 = biological target: T2, human SGLT2 (Homo sapiens, UniProt P31639); assay: Inhibition test of sodium-dependent sugar uptake in CHO-k1 cells stably expressing human SGLT2; format: cell-based; conditions: for pIC50: CHO-k1 cells expressing human SGLT2, [14C]methyl α-D-glucopyranoside uptake, 37° C., an hour; for SGLT2 % inhibition at 100 nM: sugar uptake inhibition rate at 100 nM test compound vs control group
T2 construct: expressed in transfected cells; host or cells: CHO-k1
T2 sequence (P31639 1-672): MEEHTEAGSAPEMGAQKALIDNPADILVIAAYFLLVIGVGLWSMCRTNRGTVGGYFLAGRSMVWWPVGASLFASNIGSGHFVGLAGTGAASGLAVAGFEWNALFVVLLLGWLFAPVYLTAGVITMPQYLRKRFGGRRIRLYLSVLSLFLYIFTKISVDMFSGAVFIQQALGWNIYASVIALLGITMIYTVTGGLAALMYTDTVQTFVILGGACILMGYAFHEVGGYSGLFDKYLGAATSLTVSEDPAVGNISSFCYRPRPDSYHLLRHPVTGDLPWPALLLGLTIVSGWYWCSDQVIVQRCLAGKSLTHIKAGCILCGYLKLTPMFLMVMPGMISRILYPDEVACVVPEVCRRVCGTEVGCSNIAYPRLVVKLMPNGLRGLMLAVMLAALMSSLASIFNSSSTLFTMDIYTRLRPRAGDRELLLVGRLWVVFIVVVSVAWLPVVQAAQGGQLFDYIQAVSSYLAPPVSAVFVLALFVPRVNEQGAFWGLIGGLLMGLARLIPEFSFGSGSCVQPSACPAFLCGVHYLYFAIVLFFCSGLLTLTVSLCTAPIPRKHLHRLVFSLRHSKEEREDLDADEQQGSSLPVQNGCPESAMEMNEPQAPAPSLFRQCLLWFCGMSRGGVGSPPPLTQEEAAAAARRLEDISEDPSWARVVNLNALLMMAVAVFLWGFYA
Method: as §1, §2, §3, §4, §5, §6

Row | pIC50 (human SGLT1) | pIC50 (human SGLT2) | SGLT1 % inhibition at 100 nM (human SGLT1) [%] | SGLT2 % inhibition at 100 nM (human SGLT2) [%] | SMILES
1 | 6.83 | 7.41 | – | – | COCCNC(=O)NCCc1ccc(Cc2cc([C@@H]3O[C@H](CO)[C@@H](O)[C@H](O)[C@H]3O)c(O)cc2C)cc1 [Compound 31]
2 | – | – | 71 | 84 | COc1cccc(CCNC(=O)NCCc2ccc(Cc3cc([C@@H]4O[C@H](CO)[C@@H](O)[C@H](O)[C@H]4O)c(O)cc3C)cc2)c1 [Compound 51]
3 | – | – | 65 | 84 | Cc1cc(O)c([C@@H]2O[C@H](CO)[C@@H](O)[C@H](O)[C@H]2O)cc1Cc1ccc(CCNC(=O)NC2Cc3ccccc3C2)cc1 [Compound 138]
4 | – | – | 63 | 81 | Cc1cc(O)c([C@@H]2O[C@H](CO)[C@@H](O)[C@H](O)[C@H]2O)cc1Cc1ccc(CCNC(=O)NCCc2ccc(O)cc2)cc1 [Compound 63]
5 | – | – | 71 | 79 | Cc1cc(O)c(C2OC(CO)C(O)C(O)C2O)cc1Cc1ccc(CCNC(=O)Nc2ccccc2C(O)c2ccccc2)cc1 (mixture of isomers) [Compound 137]
6 | – | – | 71 | 84 | Cc1cc(O)c([C@@H]2O[C@H](CO)[C@@H](O)[C@H](O)[C@H]2O)cc1Cc1ccc(CCNC(=O)NCCc2ccc(F)cc2)cc1 [Compound 52]
7 | – | – | 62 | 83 | Cc1cc(O)c([C@@H]2O[C@H](CO)[C@@H](O)[C@H](O)[C@H]2O)cc1Cc1ccc(CCNC(=O)NCC(O)COc2ccccc2)cc1 (stereo partly shown) [Compound 66]
8 | – | – | 65 | 95 | Cc1cc(O)c([C@@H]2O[C@H](CO)[C@@H](O)[C@H](O)[C@H]2O)cc1Cc1ccc(CCNC(=O)NCc2cc3ccccc3s2)cc1 [Compound 61]
9 | 6.52 | 7.00 | – | – | Cc1cc(O)c([C@@H]2O[C@H](CO)[C@@H](O)[C@H](O)[C@H]2O)cc1Cc1ccc(OCCNC(=O)NC(CO)(CO)CO)cc1 [Compound 19]
10 | 7.12 | 7.77 | – | – | CSCCNC(=O)NCCc1ccc(Cc2cc([C@@H]3O[C@H](CO)[C@@H](O)[C@H](O)[C@H]3O)c(O)cc2C)cc1 [Compound 29]
11 | 7.31 | 7.68 | – | – | O=C(NCCc1ccc(Cc2cc([C@@H]3O[C@H](CO)[C@@H](O)[C@H](O)[C@H]3O)c(O)cc2Cl)cc1)NC(CO)(CO)CO [Compound 14, (1S)-1,5-anhydro-1-[4-chloro-5-[4-[2-[[[2-hydroxy-1,1-bis(hydroxymethyl)ethyl]aminocarbonyl]amino]ethyl]benzyl]-2-hydroxyphenyl]-D-glucitol]
12 | 7.28 | 7.82 | – | – | Cc1cc(O)c([C@@H]2O[C@H](CO)[C@@H](O)[C@H](O)[C@H]2O)cc1Cc1ccc(CCNC(=O)NCc2cccs2)cc1 [Compound 26]
13 | – | – | 77 | 86 | Cc1cc(O)c([C@@H]2O[C@H](CO)[C@@H](O)[C@H](O)[C@H]2O)cc1Cc1ccc(CCNC(=O)NC(CO)C(C)C)cc1 (stereo partly shown) [Compound 43]
14 | 7.27 | 7.82 | – | – | Cc1cc(O)c([C@@H]2O[C@H](CO)[C@@H](O)[C@H](O)[C@H]2O)cc1Cc1ccc(CCNC(=O)NCc2cc(Cl)cc(Cl)c2)cc1 [Compound 27]
15 | – | – | 66 | 91 | Cc1cc(O)c([C@@H]2O[C@H](CO)[C@@H](O)[C@H](O)[C@H]2O)cc1Cc1ccc(CCNC(=O)NC(Cc2ccccc2)C(N)=O)cc1 (stereo partly shown) [Compound 60]
16 | – | – | 78 | 87 | Cc1cc(O)c([C@@H]2O[C@H](CO)[C@@H](O)[C@H](O)[C@H]2O)cc1Cc1ccc(CCNC(=O)NCc2ccco2)cc1 [Compound 42]
17 | 7.19 | 7.70 | – | – | CCCN(CC1CC1)C(=O)NCCc1ccc(Cc2cc([C@@H]3O[C@H](CO)[C@@H](O)[C@H](O)[C@H]3O)c(O)cc2C)cc1 [Compound 25]
18 | – | – | 69 | 69 | COc1ccc(CCNC(=O)NCCc2ccc(Cc3cc([C@@H]4O[C@H](CO)[C@@H](O)[C@H](O)[C@H]4O)c(O)cc3C)cc2)cc1OC [Compound 55]
19 | 7.43 | 7.60 | – | – | Cc1cc(O)c([C@@H]2O[C@H](CO)[C@@H](O)[C@H](O)[C@H]2O)cc1Cc1ccc(CCNC(=O)N[C@@H](CC(C)C)C(N)=O)cc1 [Compound 24]
20 | – | – | 80 | 83 | Cc1cc(O)c([C@@H]2O[C@H](CO)[C@@H](O)[C@H](O)[C@H]2O)cc1Cc1ccc(CCNC(=O)NC(C)(C)C)cc1 [Compound 39]
21 | – | – | 62 | 76 | Cc1cc(O)c([C@@H]2O[C@H](CO)[C@@H](O)[C@H](O)[C@H]2O)cc1Cc1ccc(CCNC(=O)NCC2OCCO2)cc1 [Compound 64]
22 | – | – | 89 | 83 | CCC(CO)(CO)NC(=O)NCCc1ccc(Cc2cc([C@@H]3O[C@H](CO)[C@@H](O)[C@H](O)[C@H]3O)c(O)cc2C)cc1 [Compound 38]
23 | – | – | 59 | 86 | Cc1cc(O)c([C@@H]2O[C@H](CO)[C@@H](O)[C@H](O)[C@H]2O)cc1Cc1ccc(CCNC(=O)NCCc2ccccc2)cc1 [Compound 71]
24 | – | – | 62 | 76 | Cc1cc(O)c([C@@H]2O[C@H](CO)[C@@H](O)[C@H](O)[C@H]2O)cc1Cc1ccc(CCNC(=O)NCC2CCCO2)cc1 (stereo partly shown) [Compound 65]
25 | – | – | 74 | 91 | Cc1cc(O)c(C2OC(CO)C(O)C(O)C2O)cc1Cc1ccc(CCNC(=O)NC(CO)CC(C)C)cc1 (stereo not shown) [Compound 46]
26 | – | – | 70 | 74 | Cc1cc(O)c([C@@H]2O[C@H](CO)[C@@H](O)[C@H](O)[C@H]2O)cc1Cc1ccc(CCNC(=O)NCC(c2ccccc2)c2ccccc2)cc1 [Compound 53]

Reference: patent US7973012B2, “C-phenyl glycitol compound” (Taisho Pharmaceutical Co., Ltd, priority 2006, dated 2011)
